In US10898592B2, “Compositions and methods for reducing the risk of post-imaging pancreatitis” (University Of Pittsburgh—Of The Commonwealth System Of …, priority 2015, dated 2021):
“Also recorded” adds a separate entry of the source.

Columns and labels:
[1] = test system: calcineurin (NFAT-luciferase); assay: NFAT-luciferase activity assay, AR42J cells; format: cell-based; conditions: for effect on RC (6%)-induced NFAT-luciferase activity: pretreatment, FK506 24 μM, CsA 16 μM, U73122 5 μM, 2-APB 100 μM, BAPTA 64 μM
Protocol: (§1) NFAT-luciferase activity assay. Acinar cells were infected with Ad-NFAT-luciferase following a previously described procedure^10,15,16. The construct includes a luciferase gene placed downstream of an IL-4 promoter which contains nine tandem NFAT binding sites^10. Acinar cells were incubated with the NFAT-driven luciferase adenovirus for 1.5 hr prior to stimulation. All of the stated inhibitors were added for 30 min prior to stimulation with RC. NFAT-luciferase was measured using the luciferase assay system. Briefly, cells were spun at 1,000 rpm for 5 min, washed with PBS, and lysed using reporter lysis 5× buffer (Promega #E397A, Madison, Wis.). Samples were vortexed and spun at 12,000 g for 2 min. Supernatant was plated, and luminescence was measured using a Synergy H1 plate reader (BioTek, Winooski, Vt.) and normalized to total protein.

AR42J cells = assay: Ca^2+ signals (Fluo-4AM) in AR42J cells; format: cell-based; conditions: U73122 5 μM; 2-APB 100 μM
primary acinar cells = assay: Cell necrosis assay (propidium iodide uptake), primary acinar cells; format: cell-based, mouse; conditions: for effect on RC (12%)-induced acinar cell injury (PI uptake): 6 hr incubation, U73122 5 μM, 2-APB 100 μM, BAPTA 64 μM, IKK-2 20 μM, FK506 24 μM, CsA 16 μM
Protocol: Cell necrosis assay. Acinar cells were incubated in a 48-well plate with 50 μg/ml of propidium iodide (PI) for 30 min prior to addition of RC. Fluorescence was measured at 536 nm excitation and 617 nm emission wavelengths over time a time course of up to 6 hr. Fluorescence was measured after cell lysis with 0.5% Triton-X 100 was used to normalize the results relative to total DNA.

NF-κB = assay: NF-κB-luciferase activity assay, AR42J cells; format: cell-based; conditions: for effect on RC-induced NF-κB-luciferase levels: U73122 5 μM, 2-APB 100 μM, BAPTA 64 μM
Protocol: NF-κB-luciferase activity assay. AR42J cells were differentiated towards an acinar phenotype by administering dexamethasone (100 nM) for 48-72 hr^17. AR42J cells were infected with Ad-NF-κB luciferase 16 h prior to stimulation using a previously described method^12. Following a wash with DMEM/F12 medium, acinar cells were evenly distributed in a 48-well plate and incubated for 30 min at 37° C. They were incubated with RC at varying concentrations and times. NF-κB-luciferase was measured using a commercially available luciferase assay (Promega, Madison, Wis.). Briefly, cells were spun at 1,000 rpm for 5 min, washed with PBS, and lysed using reporter lysis 5× buffer (Promega, catalog no. E397A). Samples were vortexed and spun at 12,000×g for 2 min. The supernatant was plated, and luminescence was measured using a Synergy H1 plate reader (BioTek, Winooski, Vt.) and normalized to total […].

NRK-52E renal cell line = conditions: long incubation (4 hr); cited from earlier work
pancreas = assay: Intra-ductal RC infusion (PEP model) in mice: histological severity, serum amylase; format: in vivo, mouse
From the text: Intra-ductal RC infusion in mice. The procedure for retrograde infusion into the CBD and pancreatic duct has been described before^14. Briefly, Swiss Webster mice were anesthetized with isoflurane. A midline incision was made to reveal the abdominal cavity. The duodenum was flipped to reveal its distal side and held in place by ligatures. […] needle was inserted through the anti-mesenteric aspect of the duodenum to cannulate the CBD. A small bull dog clamp was applied to the distal CBD (near the duodenum) to prevent back flow of the infusate into the duodenal lumen and to hold the cannula in place. A larger bull dog clamp was applied to the proximal CBD (near the liver) to prevent infusion into the liver and thus to direct flow to the pancreatic duct. Total volumes of 50-100 μl of iohexol, iopamidol, or normal saline (NS) were infused at 10-20 μl per min for 5 min using a P33 perfusion pump (Harvard Apparatus, Holliston, Mass.). Upon completion of the infusion, the bull dog clamps were released. The exterior abdominal wound was closed using 7 mm wound clips, and a single injection of buprenorphine (0.075 mg/kg) was given immediately after the surgery. Mice recovered on a heating pad for 30 min after the procedure. They were given free access to food and water after the surgery. Pancreas tissue preparation, histological grading, and serum amylase. The pancreas, duodenum, and spleen were fixed at room temperature for 24 hr in 4% paraformaldehyde. Paraffin-embedded sections were stained with hematoxylin an eosin (HE) and graded using a 20× objective over 10 separate fields in a blinded fashion. Pancreas tissue was graded for edema, inflammatory infiltrate, and necrosis as described by Wildi et al.^67. Whole blood samples were centrifuged at 1500×g for 5 min at 4° C. Serum amylase was measured using a Phadebas kit (Amersham Pharmacia, Rochester N.Y.) as previously described^68.

[2] = test system: mouse pancreatic acinar cells; assay: Ca^2+ signals (Fluo-4AM) in mouse pancreatic acinar cells; format: cell-based; conditions: RC 25% and 33%
Protocol: Detection and analysis of cellular Ca^2+ signals from mouse and human acini. Acinar cells were loaded at room temperature with the high-affinity Ca^2+-sensing dye Fluo-4AM (Kd=300 nM; Invitrogen). Acinar cells were plated on acid-washed glass coverslips and then mounted on a perifusion chamber. Thereupon, they were stimulated at room temperature with varying concentrations of RC (17-50%) diluted in HEPES buffer. Carbachol (1 mM) was given at the end of each experiment to confirm that the cells were intact and could mobilize intracellular Ca^2+ stores. A Zeiss LSM710 laser scanning confocal microscope was used with a 20×, 1.4 numerical aperture objective. The dye was excited at 488 nm wavelength, and emission signals of >515 nm were collected every 2 sec. Fluorescence from individual acinar cells was recorded. Analysis of recordings was performed using ImageJ software (NIH, Bethesda, Md.), and mean fluorescence over time in each region was graphed.
Preparation of mouse pancreatic acini for Ca^2+ imaging. Groups of pancreatic acinar cells were isolated as previously described^26,69, with minor modifications. […]

pancreatic NF-κB = assay: Imaging pancreatic NF-κB bioluminescence in vivo (AAV6-NF-κB-luciferase); set-up: species or system mouse; conditions: RC-infused mice, 4 hr after surgery
Protocol: Imaging pancreatic NF-κB bioluminescence in vivo. An AAV6-NF-κB-luciferase reporter was constructed, expanded in HEK293 cells, and purified as previously described^18-20,39. A volume of 100 μl of virus (10^12 GCP/ml) was infused into the pancreaticobiliary duct at a rate of 10 μl/min using the same technique of RC infusion described above and recently published^21,39. After a 5-week recovery from the surgery, mice underwent PEP induction with or without FK506 treatment. At varying time points after the surgery, ranging from 2 to 36 hr, bioluminescence signals were obtained by first giving a subcutaneous injection of luciferin (150 μg/g body weight) in the scruff of the neck 15 min before the start of imaging. The mice were briefly anesthetized with isoflurane and placed in the supine position in a bioluminescent imaging chamber (IVIS spectrum imager; Perkin Elmer, Waltham, Mass.) for 3-10 min. Average pixel intensity was measured from a pancreatic region of interest (in the upper abdomen). Raw time points from each mouse were normalized to its individual baseline intensity at time zero.

[3] = test system: IL-6, GADD45B, IL-1β gene expression; assay: Real-time PCR of pancreatic head (IL-6, GADD45B, IL-1β); format: in vivo, mouse; conditions: RC exposure
Protocol: RNA extraction from whole pancreas and real-time PCR. Total RNA from the pancreatic head was obtained by homogenizing 40 mg of tissue in 2 ml of TRIzol reagent (Life Technologies; Grand Island N.Y.) at 4° C. and immediately flash frozen in liquid nitrogen. Samples were thawed on ice and centrifuged at 12,000×g for 10 min at 4° C. The supernatant was diluted with 200 μl of chloroform and centrifuged at 12,000×g for 15 min at 4° C. The upper aqueous phase was treated with 0.5 ml of isopropanol and centrifuged at 10,000×g for 10 min at 4° C. The pellet was resuspended with 150 μl of 75% ethanol and centrifuged at 7500×g for 5 min at 4° C. The pellet was air-dried and dissolved in 100 μl of nuclease-free water. Total RNA samples were used to generate cDNA using the iScript Advanced cDNA synthesis Kit (Bio Rad; Hercules, Calif.).
Quantitative real-time PCR (rtPCR) was performed to determine the relative expression of the cytokines IL-6 and IL-1β as well as the cell growth arrest and DNA-damage inducible gene GADD45B. The primer pairs for each as well as a GAPDH control were obtained as part of the PrimePCR-PreAMP SYBR Green Assay (Bio Rad; unique assay ID #qMmuCEP0054186, qMmuCID0005641, qMmuCEP0039581). rtPCR reactions were carried out in 20 μl volume reactions using the SsoAdvanced Universal Supermix SYBR Green system (Bio Rad). The reactions contained 1× SsoAdvanced Universal SYBR Green Supermix, 300 nM forward Primer, 300 nM reverse primer and 100 ng cDNA. rtPCR conditions were 95° C. for 10 sec and 60° C. for 30 sec for 35 cycles on a Bio Rad CFX96 Touch thermocycler (Bio Rad). Results for the expression of mRNA were normalized to expression of 18S rRNA and are represented relative to expression levels for each of the control groups.

pancreatic acinar cells = assay: ATP level measurements in pancreatic acinar cells; format: cell-based, mouse; conditions: RC, concentration dependent
Protocol: ATP level measurements. Following isolation, pancreatic acinar cells were cultured in DMEM/F12 Medium (0.5 ml/well of a 48-well plate) at 37° C. water bath and treated with RC±FK506. Cells were collected at indicated time points and lysed in 100 μl lysis buffer (100 mM Tris pH 7.75, 4 mM EDTA). ATP levels were measured from 20 μl aliquots of acinar cell lysates using the ENLITEN luciferase/luciferin reagent (Promega catalog no. FF2021).

[4] = high-affinity Ca^2+-sensing dye (Invitrogen); cited from earlier work
[5] = test system: calcineurin (NFAT-luciferase); assay: NFAT-luciferase activity assay (calcineurin activation), mouse primary acinar cells; format: cell-based; conditions: 2-APB 100 μM, 30 min pre-treatment; RC 9%
Protocol: as §1

COc1ccc2c(c1)CC[C@@H]1[C@@H]2CC[C@]2(C)[C@@H](NCCCCCCN3C(=O)C=CC3=O)CC[C@@H]12 [U73122]
effect on RC (6%)-induced NFAT-luciferase activity [1]: prevented
effect on RC (25%)-induced Ca^2+ signals (AR42J cells): prevented
effect on RC (12%)-induced acinar cell injury (PI uptake) (primary acinar cells): prevented
effect on RC-induced NF-κB-luciferase levels (NF-κB): reduced

O=C(NCC(O)CO)c1c(I)c(C(=O)NCC(O)CO)c(I)c(N(CCO)C(=O)CO)c1I (centres unmarked) [ioversol]
baseline cytosolic Ca^2+ levels (NRK-52E renal cell line): caused a slow, globalized increase in baseline cytosolic Ca^2+ levels

C[C@H](O)C(=O)Nc1c(I)c(C(=O)NC(CO)CO)c(I)c(C(=O)NC(CO)CO)c1I [iopamidol]
induction of pancreatitis by intraductal infusion (histological severity, serum amylase, serum IL-6) (pancreas; iopamidol (Isovue 300) compared with iohexol, 24 hr): similar; also recorded: induces pancreatitis
calcineurin/NFAT activation on exposure to radiocontrast ([1]; AR42J cells): induced NFAT activation in a concentration-dependent manner
NF-κB-luciferase on exposure to radiocontrast (NF-κB; AR42J cells, 6 hr): induced NF-κB activation in a concentration-dependent manner

CC(=O)N(CC(O)CO)c1c(I)c(C(=O)NCC(O)CO)c(I)c(C(=O)NCC(O)CO)c1I (centres unmarked) [RC, iohexol]
amplitude of Ca^2+ signal above baseline [2]: 400%
peak in pancreatic NF-κB luciferase compared to NS sham (pancreatic NF-κB): 13 fold
expression of GADD45B [3]: upregulated
expression of IL-1β [3]: upregulated
expression of IL-6 [3]: upregulated
severity of pancreatitis at pH 6 compared to pH 7 (pancreas; RC buffered with 10 mM HEPES, pH clamped at 6): no increased severity of pancreatitis
increase in histological severity above the intra-ductal NS sham control (pancreas; intraductal RC at doubled rate and volume, pancreatic head 24 hr after procedure): 59%
serum amylase increase (pancreas; intraductal RC, 6 hr post-procedure): at least 50%
propidium iodide (PI) uptake (primary acinar cells; RC exposure for 6 hr): concentration-dependent increase
ATP levels (pancreatic acinar cells): depletion of ATP levels

CC(=O)OCOC(=O)CN(CC(=O)OCOC(C)=O)c1ccc(C)cc1OCCOc1cc(-c2c3cc(F)c(=O)cc-3oc3cc(OCOC(C)=O)c(F)cc23)ccc1N(CC(=O)OCOC(C)=O)CC(=O)OCOC(C)=O [Fluo-4AM]
Kd [4]: 300 nM

OC[C@@H](O)[C@@H](O)[C@H](O)[C@H](O)CO [mannitol]
NF-κB activation under hyperosmolar control (NF-κB; mannitol at concentrations equimolar to RC): failed to cause an increase

NCCOB(c1ccccc1)c1ccccc1 [2-APB]
effect on RC (6%)-induced NFAT-luciferase activity [1]: prevented
effect on RC (25%)-induced Ca^2+ signals (AR42J cells): prevented
effect on RC (12%)-induced acinar cell injury (PI uptake) (primary acinar cells): prevented
effect on RC-induced NF-κB-luciferase levels (NF-κB): reduced
reduction of RC-induced NFAT-luciferase rise [5]: 47%

CCCCCCCCCCC[C@@H](C[C@@H]1OC(=O)[C@H]1CCCCCC)OC(=O)[C@H](CC(C)C)NC=O [Orlistat]
effect on activation of NF-κB with RC (NF-κB; Orlistat pretreatment (50-100 μM), RC 16%): did not significantly reduce
